Test results as given in patent US7514443B2, “Substituted pyrazolo[1,5-a]pyrimidines as inhibitors of metabotropic glutamate receptors” (Hoffmann-La Roche Inc., priority 2003, dated 2009).

Molecular target: T1, rat mGlu2 receptor (Rattus norvegicus, UniProt P31421)
T1 construct: expressed in transfected cells; membranes prepared from them
Assay: [3H]-LY354740 binding on mGlu2 transfected CHO cell membranes
Details: inhibition of 10 nM [3H]-LY354740 binding, membranes of mGlu2 transfected CHO cells, room temperature, 1 hour; read-out: mGluR2 Ki
Description: [^3H]-LY354740 Binding on mGlu2 Transfected CHO Cell Membranes
Transfection and cell culture: cDNA encoding the rat mGlu2 receptor protein in pBluescript II was subcloned into the eukaryotic expression vector pcDNA I-amp from Invitrogen (NV Leek, The Netherlands). This vector construct (pcD1mGR2) was co-transfected with a psvNeo plasmid encoding the gene for neomycin resistance, into CHO cells by a modified calcium phosphate method described by Chen & Okayama (1988). The cells were maintained in Dulbecco's Modified Eagle medium with reduced L-glutamine (2 mM final concentration) and 10% dialyzed foetal calf serum from Gibco BRL (Basel, Switzerland). Selection was made in the presence of G-418 (1000 μg/ml final). Clones were identified by reverse transcription of 5 μg total RNA, follow by PCR using mGlu2 receptor specific primers 5′-[…]-3′ (SEQ ID NO: 1) and 5′-[…]-3′ (SEQ ID NO:2) in 60 mM Tris HCl (pH 10), 15 mM (NH4)2SO4, 2 mM MgCl2, 25 units/ml Taq Polymerase with 30 cycles annealing at 60° C. for 1 min., extension at 72° C. for 30 s, and 1 min. 95° C. denaturation.
Membrane preparation: Cells, cultured as above, were harvested and washed three times with cold PBS and frozen at −80° C. The pellet was resuspended in cold 20 mM HEPES-NaOH buffer containing 10 mM EDTA (pH 7.4), and homogenized with a polytron (Kinematica, AG, Littau, Switzerland) for 10 s at 10 000 rpm. After centrifugation for 30 min. at 4° C., the pellet was washed once with the same buffer, and once with cold 20 mM HEPES-NaOH buffer containing 0.1 mM EDTA, (pH 7.4). Protein content was measured using the Pierce method (Socochim, Lausanne, Switzerland) using bovine serum albumin as standard.
[^3H]-LY354740 binding: After thawing, the membranes were resuspended in cold 50 mM Tris-HCl buffer containing 2 mM MgCl2 and 2 mM CaCl2, (pH 7) (binding buffer). The final concentration of the membranes in the assays was 25 μg protein/ml. Inhibition experiments were performed with membranes incubated with 10 nM [^3H]-LY354740 at room temperature, for 1 hour, in the presence of various concentrations of the compound to be tested. Following the incubations, membranes were filtered onto Whatmann GF/C glass fiber filters and washed 5 times with cold binding buffer. Non specific binding was measured in the presence of 10 μM DCG IV. After transfer of the filters into plastic vials containing 10 ml of Ultima-gold scintillation fluid (Packard, Zürich, Switzerland), the radioactivity was measured by liquid scintillation in a Tri-Carb 2500 TR counter (Packard, Zürich, Switzerland).
Data analysis: The inhibition curves were fitted with a four parameter logistic equation giving IC50 values, and Hill coefficients.

T1 sequence (P31421 19-872): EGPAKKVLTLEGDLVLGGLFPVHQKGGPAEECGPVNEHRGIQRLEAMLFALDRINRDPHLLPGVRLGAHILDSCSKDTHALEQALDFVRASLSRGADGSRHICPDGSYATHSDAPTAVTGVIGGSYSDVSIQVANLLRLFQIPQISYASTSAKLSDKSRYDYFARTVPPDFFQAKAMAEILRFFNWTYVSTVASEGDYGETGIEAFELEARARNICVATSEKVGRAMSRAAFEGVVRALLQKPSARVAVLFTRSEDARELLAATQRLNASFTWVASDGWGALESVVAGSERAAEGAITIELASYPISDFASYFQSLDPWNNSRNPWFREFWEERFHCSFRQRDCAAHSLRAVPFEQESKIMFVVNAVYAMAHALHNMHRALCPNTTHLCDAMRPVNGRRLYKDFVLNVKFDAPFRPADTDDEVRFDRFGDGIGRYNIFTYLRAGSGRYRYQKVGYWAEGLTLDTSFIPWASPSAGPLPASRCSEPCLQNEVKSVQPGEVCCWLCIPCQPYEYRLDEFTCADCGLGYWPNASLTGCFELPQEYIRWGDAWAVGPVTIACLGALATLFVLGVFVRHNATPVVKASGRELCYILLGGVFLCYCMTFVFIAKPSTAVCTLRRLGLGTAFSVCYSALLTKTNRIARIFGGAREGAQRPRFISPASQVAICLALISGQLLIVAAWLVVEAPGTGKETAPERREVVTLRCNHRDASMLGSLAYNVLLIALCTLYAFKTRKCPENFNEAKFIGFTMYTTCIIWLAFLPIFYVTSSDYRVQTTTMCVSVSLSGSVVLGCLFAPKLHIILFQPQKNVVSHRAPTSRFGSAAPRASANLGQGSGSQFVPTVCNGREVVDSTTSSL

Ki [nM] | SMILES
43 | N#Cc1cnn2c(C(F)(F)F)cc(-c3ccc(F)c(C(F)(F)F)c3)nc12 [Example 1.13, 5-(4-Fluoro-3-trifluoromethyl-phenyl)-7-trifluoromethyl-pyrazolo[1,5-a]pyrimidine-3-carbonitrile]
32 | N#Cc1c(-c2ccc(OCC(F)(F)F)c(C(F)(F)F)c2)nn2c(C(F)(F)F)ccnc12 [Example 1.19, 2-(4-Trifluoroethoxy-3-trifluoromethyl-phenyl)-4-trifluoromethyl-pyrazolo[1,5-a]pyrimidine-8-carbonitrile]
72 | Cc1nn2c(C(F)(F)F)cc(-c3cccc(C(F)(F)F)c3)nc2c1C#N [Example 2.2, 2-Methyl-5-(3-trifluoromethyl-phenyl)-7-trifluoromethyl-pyrazolo[1,5-a]pyrimidine-3-carbonitrile]
76 | Cc1cc(-c2cc(C(F)(F)F)n3nc(CC#N)c(C#N)c3n2)ccc1Cl [Example 3.2, 5-(4-Chloro-3-methyl-phenyl)-2-cyanomethyl-7-trifluoromethyl-pyrazolo[1,5-a]pyrimidine-3-carbonitrile]
47 | FC(F)(F)c1cc(-c2ccc(Cl)c(Cl)c2)nc2c(-c3cccnc3)cnn12 [Example 4.9, 5-(3,4-Dichloro-phenyl)-3-pyridin-3-yl-7-trifluoromethyl-pyrazolo[1,5-a]pyrimidine]
43.9 | Cc1cc(-c2cc(C(F)(F)F)n3ncc(-c4cc[n+]([O-])c(C)c4)c3n2)ccc1Cl [Example 7.1, 5-(4-Chloro-3-methyl-phenyl)-3-(2-methyl-1-oxy-pyridin-4-yl)-7-trifluoromethyl-pyrazolo[1,5-a]pyrimidine]

Tested on: not given
Assay: not given
Details: not given

melting point [°C] | SMILES
204 | N#Cc1cnn2c(C(F)(F)F)cc(-c3ccc(F)c(C(F)(F)F)c3)nc12 [Example 1.13, 5-(4-Fluoro-3-trifluoromethyl-phenyl)-7-trifluoromethyl-pyrazolo[1,5-a]pyrimidine-3-carbonitrile]
215 | Cc1nn2c(C(F)(F)F)cc(-c3cccc(C(F)(F)F)c3)nc2c1C#N [Example 2.2, 2-Methyl-5-(3-trifluoromethyl-phenyl)-7-trifluoromethyl-pyrazolo[1,5-a]pyrimidine-3-carbonitrile]
238 | Cc1cc(-c2cc(C(F)(F)F)n3nc(CC#N)c(C#N)c3n2)ccc1Cl [Example 3.2, 5-(4-Chloro-3-methyl-phenyl)-2-cyanomethyl-7-trifluoromethyl-pyrazolo[1,5-a]pyrimidine-3-carbonitrile]
224 | FC(F)(F)c1cc(-c2ccc(Cl)c(Cl)c2)nc2c(-c3cccnc3)cnn12 [Example 4.9, 5-(3,4-Dichloro-phenyl)-3-pyridin-3-yl-7-trifluoromethyl-pyrazolo[1,5-a]pyrimidine]
267 | Fc1cc(-c2cc(C(F)(F)F)n3cnc(-c4ccncc4)c3n2)ccc1C(F)(F)F [Example 8.15, 2-(3-Fluoro-4-trifluoromethyl-phenyl)-8-pyridin-4-yl-4-trifluoromethyl-imidazo[1,5-a]pyrimidine]
222 | Cc1ccc(-c2cc(C(F)(F)F)n3cnc(-c4ccncc4)c3n2)cc1C(F)(F)F [Example 8.16, 2-(4-Methyl-3-trifluoromethyl-phenyl)-8-pyridin-4-yl-4-trifluoromethyl-imidazo[1,5-a]pyrimidine]
244 | CCOc1ccc(-c2cc(C(F)(F)F)n3cnc(-c4ccncc4)c3n2)cc1C(F)(F)F [Example 8.17, 2-(4-Ethoxy-3-trifluoromethyl-phenyl)-8-pyridin-4-yl-4-trifluoromethyl-imidazo[1,5-a]pyrimidine]
269 | FC(F)(F)COc1ccc(-c2cc(C(F)(F)F)n3cnc(-c4ccncc4)c3n2)cc1C(F)(F)F [Example 8.18, 8-Pyridin-4-yl-2-[4-(2,2,2-trifluoro-ethoxy)-3-trifluoromethyl-phenyl]-4-trifluoromethyl-imidazo[1,5-a]pyrimidine]
232 | Cc1cc(-c2ncn3c(C(F)(F)F)cc(-c4ccc(Cl)cc4)nc23)ccn1 [Example 8.20, 2-(4-Chloro-phenyl)-8-(2-methyl-pyridin-4-yl)-4-trifluoromethyl-imidazo[1,5-a]pyrimidine]
246 | Cc1cc(-c2ncn3c(C(F)(F)F)cc(-c4ccc(Cl)c(C)c4)nc23)ccn1 [Example 8.21, 2-(4-Chloro-3-methyl-phenyl)-8-(2-methyl-pyridin-4-yl)-4-trifluoromethyl-imidazo[1,5-a]pyrimidine]
255 | Cc1cc(-c2ncn3c(C(F)(F)F)cc(-c4ccc(F)c(Cl)c4)nc23)ccn1 [Example 8.22, 2-(3-Chloro-4-fluoro-phenyl)-8-(2-methyl-pyridin-4-yl)-4-trifluoromethyl-imidazo[1,5-a]pyrimidine]
257 | Cc1cc(-c2ncn3c(C(F)(F)F)cc(-c4ccc(C(F)(F)F)cc4)nc23)ccn1 [Example 8.24, 8-(2-Methyl-pyridin-4-yl)-4-trifluoromethyl-2-(4-trifluoromethyl-phenyl)-imidazo[1,5-a]pyrimidine]
234 | Cc1cc(-c2ncn3c(C(F)(F)F)cc(-c4cccc(C(F)(F)F)c4)nc23)ccn1 [Example 8.25, 8-(2-Methyl-pyridin-4-yl)-4-trifluoromethyl-2-(3-trifluoromethyl-phenyl)-imidazo[1,5-a]pyrimidine]
243 | Cc1cc(-c2ncn3c(C(F)(F)F)cc(-c4ccc(C(F)(F)F)c(C)c4)nc23)ccn1 [Example 8.29, 2-(3-Methyl-4-trifluoromethyl-phenyl)-8-(2-methyl-pyridin-4-yl)-4-trifluoromethyl-imidazo[1,5-a]pyrimidine]
212 | CCOc1cc(-c2cc(C(F)(F)F)n3cnc(-c4ccncc4)c3n2)ccc1C(F)(F)F [Example 8.30, 2-(3-Ethoxy-4-trifluoromethyl-phenyl)-8-pyridin-4-yl-4-trifluoromethyl-imidazo[1,5-a]pyrimidine]
177 | CCOc1cc(-c2cc(C(F)(F)F)n3cnc(-c4ccnc(C)c4)c3n2)ccc1C(F)(F)F [Example 8.31, 2-(3-Ethoxy-4-trifluoromethyl-phenyl)-8-(2-methyl-pyridin-4-yl)-4-trifluoromethyl-imidazo[1,5-a]pyrimidine]
233 | FC(F)(F)COc1cc(-c2cc(C(F)(F)F)n3cnc(-c4ccncc4)c3n2)ccc1C(F)(F)F [Example 8.32, 8-Pyridin-4-yl-2-[3-(2,2,2-trifluoro-ethoxy)-4-trifluoromethyl-phenyl]-4-trifluoromethyl-imidazo[1,5-a]pyrimidine]
189 | Cc1cc(-c2ncn3c(C(F)(F)F)cc(-c4ccc(C(F)(F)F)c(OCC(F)(F)F)c4)nc23)ccn1 [Example 8.33, 8-(2-Methyl-pyridin-4-yl)-2-[3-(2,2,2-trifluoro-ethoxy)-4-trifluoromethyl-phenyl]-4-trifluoromethyl-imidazo[1,5-a]pyrimidine]
211 | FC(F)(F)c1ccc(-c2cc(C(F)(F)F)n3cnc(-c4ccncc4)c3n2)cc1C(F)(F)F [Example 8.34, 2-(3,4-Bis-trifluoromethyl-phenyl)-8-pyridin-4-yl-4-trifluoromethyl-imidazo[1,5-a]pyrimidine]
218 | Cc1cc(-c2ncn3c(C(F)(F)F)cc(-c4ccc(C(F)(F)F)c(C(F)(F)F)c4)nc23)ccn1 [Example 8.35, 2-(3,4-Bis-trifluoromethyl-phenyl)-8-(2-methyl-pyridin-4-yl)-4-trifluoromethyl-imidazo[1,5-a]pyrimidine]
249 | Cc1cc(-c2ncn3c(C(F)(F)F)cc(-c4ccc(Br)cc4)nc23)ccn1 [Example 8.36, 2-(4-Bromo-phenyl)-8-(2-methyl-pyridin-4-yl)-4-trifluoromethyl-imidazo[1,5-a]pyrimidine]
222 | FC(F)c1cc(-c2ccc(C(F)(F)F)cc2)nc2c(-c3ccncc3)cnn12 [Example 9.1, 7-Difluoromethyl-3-pyridin-4-yl-5-(4-trifluoromethyl-phenyl)-pyrazolo[1,5-a]pyrimidine]
213 | Cc1cc(-c2cnn3c(C(F)F)cc(-c4ccc(C(F)(F)F)cc4)nc23)ccn1 [Example 9.2, 7-Difluoromethyl-3-(2-methyl-pyridin-4-yl)-5-(4-trifluoromethyl-phenyl)-pyrazolo[1,5-a]pyrimidine]
236 | Cc1cc(-c2cc(C(F)F)n3ncc(-c4ccncc4)c3n2)ccc1C(F)(F)F [Example 9.3, 7-Difluoromethyl-5-(3-methyl-4-trifluoromethyl-phenyl)-3-pyridin-4-yl-pyrazolo[1,5-a]pyrimidine]
221 | Cc1cc(-c2cnn3c(C(F)F)cc(-c4ccc(C(F)(F)F)c(C)c4)nc23)ccn1 [Example 9.4, 7-Difluoromethyl-3-(2-methyl-pyridin-4-yl)-5-(3-methyl-4-trifluoromethyl-phenyl)-pyrazolo[1,5-a]pyrimidine]
206 | COc1ccc(-c2cc(C(F)F)n3ncc(-c4ccncc4)c3n2)cc1 [Example 9.5, 7-Difluoromethyl-5-(4-methoxy-phenyl)-3-pyridin-4-yl-pyrazolo[1,5-a]pyrimidine]
